In patent publication US20260007652A1, “Selective Modulators of AhR-Regulated Transcription and Method for Using Such Modulators to Treat Cancer” (OREGON STATE UNIVERSITY, priority 2022, published 2026):

Experiments:
MDA-MB-468 cells = experiment: Annexin-V apoptosis assay, MDA-MB-468 cells; format: cell-based, human; conditions: 0.25 μM, alone
Experimental: FIGS. 72A-72C presents the characterization of combinations on TNBC cell viability and cell death. Quantitation of Annexin-V staining of MDA-MB-468 cells treated with either 10 μM evoxine, 10 μM citropten, 0.25 μM 11-Cl-BBQ, or corresponding combinations for 72 hours (A and B, respectively). Quantifications represent averages of three independent experiments. C) Colony forming assay of MDA-MB-468 AhR-expressing and AhR KO cells treated with 100 nM Evoxine, 500 nM Citropten, […] 11-Cl-BBQ, or combinations of each compound with 11-Cl-BBQ.
Annexin-V staining was performed 48 hours post-treatment by harvesting cells (floating and attached) with trypsin, followed by addition of serum-containing media, and two washes with ice-cold PBS. Cells were stained with Annexin-V-PerCP conjugates (eBioscience, Waltham, MA, USA) for 15 minutes on ice before washing out residual stain and resuspending in 300 μL of binding buffer. 10,000 events were collected per sample. Data was acquired with a CytoFLEX S flow cytometer (Beckman Coulter, Brea, CA), and analyzed using the CytExpert software (Beckman Coulter).

[1] = Dose studies in mice, serum concentration; format: in vivo, mouse
cancer cell line = experiment: Cell viability of combinations of AhR ligand and synergizer (FIGS. 51, 52); format: cell-based; conditions: alone (FIG. 51)
Experimental: FIG. 51 provides data from cancer cell line trials using 11-Cl-BBQ alone, Evoxine alone, Citropten alone, and combinations comprising 11-Cl-BBQ and Citropten and 11-Cl-BBQ and Evoxine. […] The decrease in cell viability was more than additive. Specifically, for Evoxine in combination with Analog 523, the reduction in cell viability was: 31% at 1 μM; 41% at 3 μM; and 42% at 10 μM. For Citropten in combination with Analog 523, the reduction in cell viability was: 16% at 1 μM; 34% at 3 μM; and 43% at 10

H460 cells [2] = experiment: Colony forming assay, H460 cells; format: cell-based, human; conditions: 0.1-10 µM, 14 days
Experimental: H460 cells were seeded in 6-well plates at a density of 200 cell per well in complete growth media. 11-Cl-BBQ or DMSO were added the following day as indicated concentrations for two weeks in 1% FBS RMPI media, media and treatments were replenished twice a week. Cell colonies were fixed and stained with methylene blue in 50% ethanol solution overnight. Pictures of cell colonies were captured using the ChemiDoc imaging instrument, and quantified using OpenCFU software.

H460 cells [3] = experiment: Senescence-associated beta-galactosidase staining, H460 cells; format: cell-based, human; conditions: 2.5 μM for 120 h; AhR-dependent
Experimental: H460 cells were seeded at 2×10^5 cells/well in 6-well plate overnight and treated with indicated compounds for 5 days. Media and treatments were refreshed on the […]. Cells were stained for senescence-associated β-galactosidase (SA-βgal) using 5-dodecanoylaminofluorescein di-β-D-galactopyranoside (C12FDG). Briefly, media were aspirated and replaced with fresh media containing 0.1 μM bafilomycin A1 (Calbiochem) and incubated for 1 hour in cell culture incubator. C12FDG (Setare Biotech) was added with a final concentration of 33 μM and incubated for another hour. Fluorescent signal was recorded using CytoFlex S cytometer for 10,000 cells per sample.

H460 cells [4] = experiment: Annexin V staining, H460 cells; format: cell-based, human; conditions: 1 and 10 μM, 72 hours
Experimental: […] Cells were stained with Annexin-V-PerCP conjugates (eBioscience, Waltham, MA, USA) for 15 minutes on ice before washing out residual stain and resuspending in 300 μL of binding buffer. 10,000 events were collected per sample. Data was acquired with a CytoFLEX S flow cytometer (Beckman Coulter, Brea, CA), and analyzed using the CytExpert software (Beckman Coulter).

p53 = experiment: Western blot of p53 protein levels in H460 cells; format: cell-based, human; conditions: 5 μM; from 4 h, further at 6 and 9 h
Experimental: Whole cell lysate was prepared in RIPA lysis buffer with 1× Laemmli buffer, then denatured by heating at 100° C. for 5 minutes. Denatured proteins were separated in SDS-PAGE gel and transferred onto PVDF membrane. The PVDF membrane was incubated in TBST with 5% nonfat dry milk for one hour at room temperature prior to incubating with primary antibody of interest overnight at 4° C. with gentle rotation. Appropriate horse radish peroxidase conjugated secondary antibody was applied for one hour at room temperature. Signal was developed by applying SuperSignal West Pico chemiluminescence substrate and captured using the ChemiDoc imaging instrument. Primary antibodies used in this study: anti-AHR antibody (BML-SA210-Enzo Biochem, Farmingdale, NY), anti-p27^Kip1 antibody (610242-BD Biosciences), anti-p53 antibody (DO-1 sc-126-Santa Cruz Biotechnology, Dallas, TX), anti-p21 antibody (2947S-Cell Signaling Technology, Danvers, MA), and anti-GAPDH antibody (sc-36502, Santa Cruz).

HepG2 cells = experiment: Colony forming assay, HepG2 cells; format: cell-based, human; conditions: 10 μM, alone
Experimental: FIGS. 75A-75C compare the effects of 11-Cl-BBQ and Evoxine in hepatoma: A) Mouse Hepa-1 cells were treated with 11-Cl-BBQ, Evoxine either alone or in combination for 48 hours before assessing cell viability using Cell-Titer Glo Viability Assay. B) Hepa-1 cells treated with Evoxine, 11-Cl-BBQ either alone or in combination for 48 hours with induction of cell death measured by Annexin-V staining and detection by flow cytometry. C) Colony forming assay of HepG2 human hepatocellular carcinoma cells seeded at 300 cell/well in a 24-well plate before treatment with 11-Cl-BBQ, Evoxine either alone or in combination at the indicated concentrations for two weeks, followed by fixation and staining with methylene blue. Quantitation of colonies is shown on the right.
Cells were seeded at a density of 500 cell/well in triplicate in 6-well plates, and the following day, cells were treated with compounds and allowed to incubate for 2-3 weeks before fixation with 50% ethanol/water solution containing 0.1% methylene blue overnight. Colonies were counted manually, or with OpenCFU colony counting software, Images were acquired on a ChemiDoc imaging instrument.

lung cancer cells = experiment: Viability of lung cancer cell lines (CellTiter Glo); format: cell-based, human; conditions: 10 nM to 10 μM, 72 hours
Experimental: Cancer cells were seeded in 96-well plates at a density of 3,000 cells per well in their optimal culture medium supplemented with 1% FBS overnight, then compounds were added at indicated concentrations and incubated for 72 hours; otherwise, different treatment times will be specified. Cell viability was measured using the ATP-based CellTiter Glo assay (Promega-Madison, WI) following the manufacturer's protocol. Luminescent signals were recorded using the Tropix TR717 microplate luminometer. The viability of cultures following each treatment was normalized to vehicle treatment (0.1% DMSO (v/v)).

H460 cells [5] = experiment: Zebrafish tumor xenograft assay with pre-treated H460 cells; format: in vivo; conditions: cells exposed to 1 μM or 5 μM for 72 hours, washed out; days 1 and 4 post-injection; AhR-expressing cells
Experimental: H460 AHR wildtype (CR-V2) and knockout (CR-AHR3) cells were treated with 11-Cl-BBQ (1 and 5 μM) or 0.1% DMSO as vehicle control for 72 hours in RPMI media supplemented with 1% FBS. Cells were trypsinized, dyed with cell viable dye CM-Di1 (Thermofisher), and micro-injected into zebrafish embryos. The growth cancer xenografts were monitored at one day and four days post injection. Zebrafish were housed at the Sinnhuber Aquatic Research Laboratory at Oregon State University (Corvallis, OR, USA), and experiments were conducted according to Institutional Animal Care and Use Committee protocols.

H460 cells [6] = experiment: Cell cycle analysis, H460 cells; format: cell-based, human; conditions: 2.5 μM, 24 hours
Experimental: Cells were harvested by applying trypsin-EDTA then washed twice with phosphate-buffered saline (PBS) solution, fixed with 70% ethanol for 15 minutes at room temperature and kept at −20° C. overnight. Fixed samples were washed twice with PBS and stained with Hoechst 33258 (Invitrogen, Carlsbad, CA) at the final concentration of 1 μg/ml in the 0.1% Triton X-100/PBS for 20 minutes at room temperature. DNA content was analyzed by flow cytometer for 10,000 cells per sample, singlets population was selected for further analysis and cell cycle was assigned by fitting the DNA content into Dean-Jett-Fox model using FlowJo software.

O=c1c2cccc3cccc(c32)c2nc3cc(Cl)ccc3n12 [Analog 11-Cl-BBQ]
apoptotic response (Annexin-V staining) (MDA-MB-468 cells): 7.3%
concentration detected in mouse serum ([1]; 2 mg/Kg intravenous administration): up to 1.6 μM
concentration detected in mouse serum ([1]; 8 mg/Kg oral administration): 3000 nM
cell viability, monotreatments (cancer cell line): little effect
colony formation of AhR-expressing H460 cells (H460 cells [2]): strongly inhibited colony formation
SA-β-gal expression (H460 cells [3]): significant increase in SA-β-gal expression
Annexin V staining (cell death) (H460 cells [4]): negative for Annexin V staining
p53 protein levels (p53): increased p53 protein levels
HepG2 colony formation (HepG2 cells): little effect on colony formation inhibition
growth of lung cancer cells (lung cancer cells): decreased the growth of lung cancer cells in a dose-dependent manner
growth of cancer cell xenografts (H460 cells [5]): significantly lower growth
cells in S-phase (H460 cells [6]; vehicle 35%): 15%
cells in G1 phase (H460 cells [6]; vehicle 45%): > 70%
